Measurements as given in US8426138B2 (priority 2006, dated 2013).

What was measured:
β2-adrenergic receptor [1] = target: T1, β2-adrenergic receptor (Homo sapiens, UniProt P07550); assay type: cell-based; conditions: for outcome in high-throughput screen of kinase/phosphatase inhibitor library: library at 3 uM, 384-well plate, duplicate
T1 construct: expressed in transfected cells; host or cells: C2C12 myoblasts (retroviral transduction)

β2-adrenergic receptor [2] = target: T1, β2-adrenergic receptor; assay type: cell-based; conditions: compound applied 30 min before stimulation with 10 uM isoproterenol
Description: Assays and cell preparation. […] LysoTracker Red and Texas Red-labeled transferrin were purchased from Molecular Probes. The Kinase/Phosphatase Inhibitor Library was purchased from BIOMOL, and the Mechanistic and Diversity Compound Libraries were provided by the Developmental Therapeutics Program of the National Cancer Institute. Cells were plated and grown to confluency in 96-well white tissue culture dishes (Corning Costar), in 100 μl of growth media. Dose-response curves were generated by adding the respective ligand to the media and incubating for 2 h at 37° C. […] At the end of the described incubation time, Gal-Screen reagent (Buffer B formulation, Applied Biosystems) was used to assay for β-galactosidase activity, according to manufacturer's protocol; media was aspirated from the plate, and 50 μl (or 25 μl for 384-well plates, without prior media aspiration) of Gal-Screen substrate diluted in lysis buffer was added to each well.

[3] = target: Angiotensin II receptor 1a (AT1a) (Mus musculus, UniProt P29754); conditions: 2 hr
Text: Plasmids. […] Other FYVE domains were generated similarly by RT-PCR^˜. […] To generate a β2AR-eYFP-α construct, the eYFP-α fragment was subcloned into the β2AR-ωplasmid using Xhol and HindIII. The Angiotensin receptor 1a was derived by RT-PCR from C57/BI6 mouse brain RNA using primers for the entire coding sequence, minus the stop codon; it was cloned N-terminally to eYFP-α or ω with MfeI and XhoI. […] Finally, to generate fusion proteins with β-arrestin, the full coding sequence of human β-arrestin B2 was PCR amplified from a cDNA clone and inserted into the Mfel-XhoI sites of the ω and eYFP-α vectors.
Assays and cell preparation. […] LysoTracker Red and Texas Red-labeled transferrin were purchased from Molecular Probes. The Kinase/Phosphatase Inhibitor Library was purchased from BIOMOL, and the Mechanistic and Diversity Compound Libraries were provided by the Developmental Therapeutics Program of the National Cancer Institute. Cells were plated and grown to confluency in 96-well white tissue culture dishes (Corning Costar), in 100 μl of growth media. Dose-response curves were generated by adding the respective ligand to the media and incubating for 2 h at 37° C. […]

T1 sequence (P07550 whole entry, species assumed): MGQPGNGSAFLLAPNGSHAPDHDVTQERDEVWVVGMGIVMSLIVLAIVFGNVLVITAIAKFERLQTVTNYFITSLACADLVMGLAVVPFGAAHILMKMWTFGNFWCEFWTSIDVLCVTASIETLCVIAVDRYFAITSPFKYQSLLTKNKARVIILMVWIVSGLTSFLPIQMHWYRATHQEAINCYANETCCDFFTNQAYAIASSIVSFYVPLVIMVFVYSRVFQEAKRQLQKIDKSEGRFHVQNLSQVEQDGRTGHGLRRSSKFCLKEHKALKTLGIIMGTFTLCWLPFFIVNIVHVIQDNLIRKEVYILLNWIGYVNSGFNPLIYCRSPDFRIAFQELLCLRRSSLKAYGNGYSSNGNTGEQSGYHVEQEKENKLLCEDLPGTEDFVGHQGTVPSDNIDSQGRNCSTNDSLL

Q: For O=CN/C=C/c1cc(O)ccc1O [erbstatin], which “outcome in high-throughput screen of kinase/phosphatase inhibitor library” value (β2-adrenergic receptor [1]) is on record?
A: inhibitors of internalization

Q: With CN[C@@H]1C[C@H]2O[C@@](C)([C@@H]1OC)n1c3ccccc3c3c4c(c5c6ccccc6n2c5c31)C(=O)NC4 [staurosporine] as the compound, how does the “outcome in high-throughput screen of kinase/phosphatase inhibitor library” value (β2-adrenergic receptor [1]) read?
A: inhibitors of internalization

Q: With COC[C@H]1OC(=O)c2coc3c2[C@@]1(C)C1=C(C3=O)[C@@H]2CCC(=O)[C@@]2(C)C[C@H]1OC(C)=O [wortmannin] as the compound, how does the inhibition of activation (β2-adrenergic receptor [2]) read?
A: approximately 50%

Q: What about the “inhibition, internalization assay” value (β2-adrenergic receptor [1]) of the same compound?
A: approximately 90%

Q: angiotensin II was tested. Which “increase in activity, internalization assay” value [3] did it give?
A: 4 fold

Q: What about the “increase in enzyme activity, arrestin-binding activation assay” value [3] of the same compound?
A: 8.5 fold
